The values that follow come from the supplement of paper PMC11208160.
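Also: IS621 recombinase and bridge RNA in Escherichia coli cells.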

The series in a line: recombinant barcode read abundance after kanamycin selection (control-corrected) (log10(CPM+1)); higher = more efficient recombination; sequences stand for … in AGTGCAGAGAAAATCGGCCAGTTTTCTCTGCCTGCAGTCCGCATGCCGT…AGATTTATGCAGCGGACTGCCTTTCTCCCAAAGTGATAAACCGGACAGTATCATGGACCGGTTTTCCCGGTAATCCGTATTTGCAAGGTTGGTTTCACT; site = the 11-nt target. A digest of the protocol:
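Values are log10(CPM+1) from a pooled E. coli screen of targets paired with IS621 bridge RNA target-binding loops. Recombination efficiency here means counts per million of recombinant-junction barcodes, averaged and control-corrected. Plates were chloramphenicol/ampicillin LB agar for the control and chloramphenicol/ampicillin/kanamycin with 0.1 mM IPTG, two replicates each.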
Take “CGCTGATCTTGGGTTCTAACCTGTTGCCT (site AGCTGATCTAG)”: the “recombinant barcode read abundance (log10)” value is 0.0494. Take “CGCTGATCTTGGGTTCTAACCTGTTGCCT (site CGCTGATCTAG)”: the “recombinant barcode read abundance (log10)” value stood at 0.0169. As for “CGCTGATCTTGGGTTCTAACCTGTTGCCT (site GGCTGATCTAG)”, the “recombinant barcode read abundance (log10)” value worked out at 0.14. Regarding “CGCTGATCTTGGGTTCTAACCTGTTGCCT (site TGCTGATCTAG)”, the “recombinant barcode read abundance (log10)” value is 0.0802. Consider “CGCTGCCCTTGGGTTCTAACCTGTTGCTT (site CGCTGACCTAA)”, for which the “recombinant barcode read abundance (log10)” value was 0.102.

“CGCTGCCCTTGGGTTCTAACCTGTTGCTT (site CGCTGCCCTAA)”: the “recombinant barcode read abundance (log10)” value came to 0.113.

Consider “CGCTGCCCTTGGGTTCTAACCTGTTGCTT (site CGCTGGCCTAA)”, for which the “recombinant barcode read abundance (log10)” value worked out at 0.0609. “CGCTGCCCTTGGGTTCTAACCTGTTGCTT (site CGCTGTCCTAA)”: the “recombinant barcode read abundance (log10)” value stood at 0.512. The result for “CGCTGGACTTGGGTTCTAACCTGTTGCCT (site CGCTAGACTAG)” reads 0.0452.

As to “CGCTGGACTTGGGTTCTAACCTGTTGCCT (site CGCTCGACTAG)”, the “recombinant barcode read abundance (log10)” value was determined as 0.0114.

“CGCTGGACTTGGGTTCTAACCTGTTGCCT (site CGCTGGACTAG)”: the “recombinant barcode read abundance (log10)” value worked out at 0.158. Next, “CGCTGGACTTGGGTTCTAACCTGTTGCCT (site CGCTTGACTAG)”: 0.0799; “CGCTTGTCTTGGGTTCTAACCTGTTGCCT (site CGCTAGTCTAG)”: 0.0576; “CGCTTGTCTTGGGTTCTAACCTGTTGCCT (site CGCTCGTCTAG)”: 0.00757. Next, “CGCTTGTCTTGGGTTCTAACCTGTTGCCT (site CGCTGGTCTAG)”: 0.117; “CGCTTGTCTTGGGTTCTAACCTGTTGCCT (site CGCTTGTCTAG)”: 0.15. In the case of “CGGAAGTCTTGGGTTCTAACCTGTTGCCT (site CGGAAGACTAG)”, the “recombinant barcode read abundance (log10)” value came to 0.0548. With “CGGAAGTCTTGGGTTCTAACCTGTTGCCT (site CGGAAGCCTAG)”, the “recombinant barcode read abundance (log10)” value stood at 0.452. For “CGGAAGTCTTGGGTTCTAACCTGTTGCCT (site CGGAAGGCTAG)”, the “recombinant barcode read abundance (log10)” value was 0.247. Consider “CGGAAGTCTTGGGTTCTAACCTGTTGCCT (site CGGAAGTCTAG)”, for which the “recombinant barcode read abundance (log10)” value turned out to be 1.7. The result for “CGGAATCCTTGGGTTCTAACCTGTTGCAT (site CGGAATCCTAA)” reads 0.297; that for “CGGAATCCTTGGGTTCTAACCTGTTGCAT (site CGGAATCCTAC)”, 0.841. For the sequence “CGGAATCCTTGGGTTCTAACCTGTTGCAT (site CGGAATCCTAG)”, the “recombinant barcode read abundance (log10)” value turned out to be 0.29.

With “CGGAATCCTTGGGTTCTAACCTGTTGCAT (site CGGAATCCTAT)”, the “recombinant barcode read abundance (log10)” value was determined as 1.15. On to “CGGAATCCTTGGGTTCTAACCTGTTGCTT (site CGGAATCCTAA)”, for which the “recombinant barcode read abundance (log10)” value stood at 0.9. Consider “CGGAATCCTTGGGTTCTAACCTGTTGCTT (site CGGAATCCTAC)”, for which the “recombinant barcode read abundance (log10)” value amounted to 0.0576.

For the sequence “CGGAATCCTTGGGTTCTAACCTGTTGCTT (site CGGAATCCTAG)”, the “recombinant barcode read abundance (log10)” value stood at 0.316. Regarding “CGGAATCCTTGGGTTCTAACCTGTTGCTT (site CGGAATCCTAT)”, the “recombinant barcode read abundance (log10)” value turned out to be 0.707. Next, “CGGAGCCCTTGGGTTCTAACCTGTTGCAT (site CGCAGCCCTAT)”: 0.0297. On to “CGGAGCCCTTGGGTTCTAACCTGTTGCAT (site CGGAGCCCTAT)”, for which the “recombinant barcode read abundance (log10)” value was found to be 1.63.

With “CGGAGCTCTTGGGTTCTAACCTGTTGCCT (site CGAAGCTCTAG)”, the “recombinant barcode read abundance (log10)” value was found to be 0.58. Next, “CGGAGCTCTTGGGTTCTAACCTGTTGCCT (site CGCAGCTCTAG)”: 0.293; “CGGAGCTCTTGGGTTCTAACCTGTTGCCT (site CGGAGCTCTAG)”: 1.94; “CGGAGCTCTTGGGTTCTAACCTGTTGCCT (site CGTAGCTCTAG)”: 0.0387. “CGGATAGCTTGGGTTCTAACCTGTTGCCT (site CGGATAGCTAG)”: the “recombinant barcode read abundance (log10)” value was 0.885.

In the case of “CGGATAGCTTGGGTTCTAACCTGTTGCCT (site CGGATCGCTAG)”, the “recombinant barcode read abundance (log10)” value is 0.0282.

In the case of “CGGATAGCTTGGGTTCTAACCTGTTGCCT (site CGGATGGCTAG)”, the “recombinant barcode read abundance (log10)” value worked out at 0.153. Take “CGGATAGCTTGGGTTCTAACCTGTTGCCT (site CGGATTGCTAG)”: the “recombinant barcode read abundance (log10)” value was 0.553. Consider “CGGATGGCTTGGGTTCTAACCTGTTGCCT (site CGGATAGCTAG)”, for which the “recombinant barcode read abundance (log10)” value turned out to be 0.031. For the sequence “CGGATGGCTTGGGTTCTAACCTGTTGCCT (site CGGATCGCTAG)”, the “recombinant barcode read abundance (log10)” value was determined as 0.0869. “CGGATGGCTTGGGTTCTAACCTGTTGCCT (site CGGATGGCTAG)”: the “recombinant barcode read abundance (log10)” value amounted to 0.64. In the case of “CGGATGGCTTGGGTTCTAACCTGTTGCCT (site CGGATTGCTAG)”, the “recombinant barcode read abundance (log10)” value stood at 0.0444.

As to “CGGATTGCTTGGGTTCTAACCTGTTGCCT (site CGGATAGCTAG)”, the “recombinant barcode read abundance (log10)” value was found to be 0. For “CGGATTGCTTGGGTTCTAACCTGTTGCCT (site CGGATCGCTAG)”, the “recombinant barcode read abundance (log10)” value is 0.0723. On to “CGGATTGCTTGGGTTCTAACCTGTTGCCT (site CGGATGGCTAG)”, for which the “recombinant barcode read abundance (log10)” value is 0.122. For “CGGATTGCTTGGGTTCTAACCTGTTGCCT (site CGGATTGCTAG)”, the “recombinant barcode read abundance (log10)” value was found to be 0.533. “CGGCACACTTGGGTTCTAACCTGTTGCGG (site CGGAACACTCC)”: the “recombinant barcode read abundance (log10)” value amounted to 0.06. As for “CGGCACACTTGGGTTCTAACCTGTTGCGG (site CGGCACACTCC)”, the “recombinant barcode read abundance (log10)” value came out at 1.86. Take “CGGCACACTTGGGTTCTAACCTGTTGCGG (site CGGGACACTCC)”: the “recombinant barcode read abundance (log10)” value was 0.143. In the case of “CGGCACACTTGGGTTCTAACCTGTTGCGG (site CGGTACACTCC)”, the “recombinant barcode read abundance (log10)” value worked out at 0.582.

Take “CGGCCACCTTGGGTTCTAACCTGTTGCTT (site AATGGGGCTCT)”: the “recombinant barcode read abundance (log10)” value stood at 0.0969. Regarding “CGGCCACCTTGGGTTCTAACCTGTTGCTT (site CGGCCACCTAA)”, the “recombinant barcode read abundance (log10)” value was 1.02. Consider “CGGCCCACTTGGGTTCTAACCTGTTGCGG (site CGGCCCACTCC)”, for which the “recombinant barcode read abundance (log10)” value was determined as 2.35. As for “CGGCCCACTTGGGTTCTAACCTGTTGCGG (site CGGGCCACTAC)”, the “recombinant barcode read abundance (log10)” value came to 0.033. As for “CGGCCGCCTTGGGTTCTAACCTGTTGCTT (site CGGCCGCCTAA)”, the “recombinant barcode read abundance (log10)” value was determined as 0.69. On to “CGGCCGCCTTGGGTTCTAACCTGTTGCTT (site GGGTCGCCTAA)”, for which the “recombinant barcode read abundance (log10)” value turned out to be 0.0563. Regarding “CGGCTCCCTTGGGTTCTAACCTGTTGCTT (site CGGCTCCCTAA)”, the “recombinant barcode read abundance (log10)” value turned out to be 1.24. Regarding “CGGCTCCCTTGGGTTCTAACCTGTTGCTT (site GACACAACTTG)”, the “recombinant barcode read abundance (log10)” value was 0.147. For the sequence “CGGGCCACTTGGGTTCTAACCTGTTGCCT (site CAGGCCACTAG)”, the “recombinant barcode read abundance (log10)” value was determined as 0.198. Next, “CGGGCCACTTGGGTTCTAACCTGTTGCCT (site CCGGCCACTAG)”: 0.0207; “CGGGCCACTTGGGTTCTAACCTGTTGCCT (site CGGGCCACTAG)”: 0.442; “CGGGCCACTTGGGTTCTAACCTGTTGCCT (site CTGGCCACTAG)”: 0.177. Next, “CGGGCCTCTTGGGTTCTAACCTGTTGCTG (site CGGGCCTCTAA)”: 0.504; “CGGGCCTCTTGGGTTCTAACCTGTTGCTG (site CGGGCCTCTCA)”: 2.82.

With “CGGGCCTCTTGGGTTCTAACCTGTTGCTG (site CGGGCCTCTGA)”, the “recombinant barcode read abundance (log10)” value was determined as 0.217. In the case of “CGGGCCTCTTGGGTTCTAACCTGTTGCTG (site CGGGCCTCTTA)”, the “recombinant barcode read abundance (log10)” value worked out at 0.872.

In the case of “CGGGCGTCTTGGGTTCTAACCTGTTGCTA (site ATTCGAGCTAT)”, the “recombinant barcode read abundance (log10)” value was 0.116. In the case of “CGGGCGTCTTGGGTTCTAACCTGTTGCTA (site CGGGCGTCTTA)”, the “recombinant barcode read abundance (log10)” value was determined as 1.17. As for “CGGGCTACTTGGGTTCTAACCTGTTGCGG (site CGGGCTACTCC)”, the “recombinant barcode read abundance (log10)” value was found to be 3.05. Regarding “CGGGCTACTTGGGTTCTAACCTGTTGCGG (site GGGACTACTCC)”, the “recombinant barcode read abundance (log10)” value was 0.0963. Turning to “CGGGCTACTTGGGTTCTAACCTGTTGCTA (site CGGGCTACTTA)”, the “recombinant barcode read abundance (log10)” value is 1.79. Consider “CGGGCTACTTGGGTTCTAACCTGTTGCTA (site GGGGCAACTTA)”, for which the “recombinant barcode read abundance (log10)” value came to 0.209. Turning to “CGGGGCCCTTGGGTTCTAACCTGTTGCTT (site CGGGGCCCTAA)”, the “recombinant barcode read abundance (log10)” value turned out to be 2.6.

For “CGGGGCCCTTGGGTTCTAACCTGTTGCTT (site GACTAGTCTCT)”, the “recombinant barcode read abundance (log10)” value turned out to be 0.167.

With “CGGGGTCCTTGGGTTCTAACCTGTTGCTA (site CGGAGTCCTTA)”, the “recombinant barcode read abundance (log10)” value turned out to be 1.68. For “CGGGGTCCTTGGGTTCTAACCTGTTGCTA (site CGGCGTCCTTA)”, the “recombinant barcode read abundance (log10)” value came out at 0.41.

On to “CGGGGTCCTTGGGTTCTAACCTGTTGCTA (site CGGGGTCCTTA)”, for which the “recombinant barcode read abundance (log10)” value amounted to 2.5.
